Read-outs that look alike come from different tables or passages of the source.
Legend:
[1] = test system: nicked decamer 1 (nicked DNA duplex with PEG(6) tethers) (DNA, duplex, nick between T5 and G6; PEG6 tether at both ends of the duplex, joining the strands into one chain) GCGTT/GTCGC/GCGACAACGC; experiment: 1H/13C HSQC with 24-13C compound; conditions: 25 mM NaCl, 25 mM K3PO4; covalent; pH 6; 298 K; site tentatively NH2 of a base in nick
[2] = molecular target: T1, Human Topo I (topoisomerase I) (Homo sapiens, UniProt P11387); experiment: Topo I DNA relaxation fluorescence plate assay (Inspiralis); format: biochemical
T1 construct: gene TOP1
T1 sequence (P11387 2-765): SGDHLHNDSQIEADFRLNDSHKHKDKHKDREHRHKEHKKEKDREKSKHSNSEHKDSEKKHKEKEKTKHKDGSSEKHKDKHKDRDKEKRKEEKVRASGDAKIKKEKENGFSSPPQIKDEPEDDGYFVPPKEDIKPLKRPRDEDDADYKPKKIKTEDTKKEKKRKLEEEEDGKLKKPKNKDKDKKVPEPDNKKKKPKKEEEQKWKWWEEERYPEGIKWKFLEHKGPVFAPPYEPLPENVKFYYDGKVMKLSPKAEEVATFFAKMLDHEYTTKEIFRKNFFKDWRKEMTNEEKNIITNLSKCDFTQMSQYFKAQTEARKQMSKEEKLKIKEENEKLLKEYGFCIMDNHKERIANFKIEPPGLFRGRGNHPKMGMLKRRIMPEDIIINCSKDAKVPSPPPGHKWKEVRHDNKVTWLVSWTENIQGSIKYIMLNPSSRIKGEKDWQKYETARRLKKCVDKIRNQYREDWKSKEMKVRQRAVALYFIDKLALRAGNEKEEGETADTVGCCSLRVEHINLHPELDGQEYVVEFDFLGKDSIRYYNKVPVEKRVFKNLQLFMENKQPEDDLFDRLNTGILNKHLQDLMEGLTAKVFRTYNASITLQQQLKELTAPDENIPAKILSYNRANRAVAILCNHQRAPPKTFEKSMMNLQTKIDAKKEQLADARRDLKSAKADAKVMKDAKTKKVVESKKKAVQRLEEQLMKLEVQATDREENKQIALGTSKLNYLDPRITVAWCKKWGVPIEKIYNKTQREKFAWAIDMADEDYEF

[3] = test system: nicked decamer 1 (nicked DNA duplex with PEG(6) tethers) (DNA, duplex, nick between T5 and G6; PEG6 tether at both ends of the duplex, joining the strands into one chain) GCGTT/GTCGC/GCGACAACGC; experiment: DOSY NMR; conditions: 25 mM NaCl, 25 mM K3PO4; D2O, pH 6, 25 °C; filtered mother liquor; equal diffusion coefficients; bound species may include bioconjugate, 4, SN38
[4] = test system: nicked decamer 1 (nicked DNA duplex with PEG(6) tethers) (DNA, duplex, nick between T5 and G6; PEG6 tether at both ends of the duplex, joining the strands into one chain) GCGTT/GTCGC/GCGACAACGC; experiment: MALDI-MS of reaction product; conditions: 25 mM NaCl, 25 mM K3PO4; covalent; biohybrid peak m/z 7290.9; pH 6

IC50 ([2]; read-out: IC50) [µM] | Compound | binding [1] | IC50 [2] [µM] | binding [3] | binding [4]
 | CCc1c2c(nc3ccc(O)c(CN4CCOCC4)c13)-c1cc3c(c(=O)n1C2)COC(=O)[C@]3(O)CC [compound 3, 7-ethyl-9-(N-morpholino)methyl-10-hydroxycamptothecin] | yes | 48.7 | yes | 
40.3 | CCc1c2c(nc3ccc(O)cc13)-c1cc3c(c(=O)n1C2)COC(=O)[C@]3(O)CC [SN38] |  |  |  | 
 | CCc1c2c(nc3ccc(O)c(CNC)c13)-c1cc3c(c(=O)n1C2)COC(=O)[C@]3(O)CC [compound 2, 7-ethyl-9-(N-methylamino)methyl-10-hydroxycamptothecin] |  | 101 |  | yes
